In brackets after ≈: the same amount, converted by molar mass.
System: V. cholerae Δnqr mutant
Assay: microbe, parasite or virus in culture
Type: cell-based

## CC(C)/N=c1\cc2n(-c3ccc(Cl)cc3)c3ccccc3nc-2cc1Nc1ccc(Cl)cc1 [clofazimine]
  resistance of the growth to saturating concentrations of inhibitor: about 40%
Vibrio cholerae, 8 h
  MIC50: 23 ± 6 µM (≈ 10.9 µg/mL)

From paper PMC12336824 (The Journal of Biological Chemistry, 2025)
